Data taken from publication PMC6008465 (British Journal of Cancer, 2018).

Key:
MEK1 = conditions: preclinical models; cited from earlier work
cyclin D1 = conditions: quoted in discussion, no reference given, cited from earlier work
IL-8 = system: IL-8; parameters: IC50 for inhibition of spontaneous secretion of IL-8: unit not given here; conditions: quoted in discussion, no reference given, cited from earlier work
[1] = system: patients with advanced solid tumours, including melanoma; assay: Phase 1 study overall (Parts A and B): safety; format: in vivo, human
Protocol: (§1) Safety was assessed by monitoring AEs, serious AEs (SAEs), laboratory parameters, vital signs, 12-lead electrocardiograms (ECGs), Eastern Cooperative Oncology Group performance status, and symptom-directed physical and neurologic examination findings. AEs were graded by investigators based on the National Cancer Institute Common Terminology Criteria for Adverse Events, version 3.[16]

[2] = system: patients with advanced BRAF-mutated or wild-type (WT) melanoma; assay: Phase 1 Part B (expansion): safety, MTD confirmation; format: in vivo, human
Protocol: In Part B, an adaptive study design was planned to define an optimal dosing schedule. Two schedules were evaluated: Schedule I (once-weekly dosing at the MTD, 320 mg/m^2, on Days 1, 8, and 15 of a 28-day cycle) and Schedule II (twice-weekly dosing, on Days 1, 4, 8, 11, 15, and 18 of a 28-day cycle, starting at 160 mg/m^2, based on the Schedule I MTD). One dose escalation (from 160 mg/m^2 to 320 mg/m^2) was allowed in Schedule II for MTD determination. […] Toxicity was managed as before. Up to 30 patients with BRAF-mutated melanoma and up to 29 patients with BRAF-WT melanoma were to be enrolled in Schedule I. Up to 30 patients were to be enrolled into Schedule II once the MTD was confirmed. Based on the efficacy observed in Part A, Schedule II was initiated only in patients with BRAF-mutated melanoma. Patients could continue to receive E6201 as long as there was evidence of clinical benefit (extension phase).
as §1

IL-6 = conditions: quoted in discussion, no reference given, cited from earlier work
phosphor-ERK levels = conditions: quoted in discussion, no reference given; read-out: IC50 for inhibition of phosphor-ERK levels; cited from earlier work
[3] = Part B, BRAF-WT 320 mg/m^2 once weekly (n=7)
[4] = Part B, BRAF-mutated 160 mg/m^2 twice weekly (n=3)
[5] = Part B, BRAF-mutated 320 mg/m^2 once weekly (n=20)
[6] = Part B, BRAF-mutated 320 mg/m^2 once-weekly group

CCNc1cc(O)c2c(c1)/C=C/C[C@H](O)[C@H](O)C(=O)/C=C\[C@@H](C)[C@H](C)OC2=O [E6201, (3S,4R,5Z,8S,9S,11E)-14-(ethylamino)-8,9,16-trihydroxy-3,4-dimethyl-3,4,9,19-tetrahydro-1H-2-benzoxacyclotetradecine-1,7 (8H)-dione]
Time after dosing at which MEK1 inhibition occurred (MEK1): 8 h | Time postdose for which MEK1 inhibition was sustained (MEK1): 72 h | IC50 for inhibition of cyclin D1 (cyclin D1): 1.87 ng/mL | IC50 (cyclin D1; read-out: IC50 for inhibition of cyclin D1): 4.8 nM | IC50 for inhibition of spontaneous secretion of IL-8 (IL-8): 8.19 | IC50 (IL-8; read-out: IC50 for inhibition of spontaneous secretion of IL-8): 21.8 nM | Patients who died during the study ([1]; Parts A and B): Four | AEs of cardiomyopathy ([1]; during the study): no reported AEs of cardiomyopathy | New skin cancers ([1]; during the study): No new skin cancers were reported | Patients who discontinued treatment due to SAEs ([2]; Part B): 4 patients | Fatigue TEAE, patients ([2]; Part B overall, 11 patients): 36.7% | Grade 3/4 abdominal pain, patients ([2]; Part B, 2 patients): 6.7% | Grade 3/4 dyspnea, patients ([2]; Part B, 2 patients): 6.7% | Treatment-emergent SAEs other than death, patients ([2]; Part B, 14 patients): 46.7% | Grade 3/4 TEAEs, patients ([2]; Part B, 15 patients): 50.0% | Patients with ≥1 TEAE assessed as treatment-related ([2]; Part B, 19 patients): 63.3% | QT prolongation reported as an AE (grade 3, possibly related, not DLT), patients ([2]; Part B, 60-min infusion, 1 patient): 3.3% | Anemia TEAE incidence, All grades [2, 3]: 3 (42.9) n (%) | Anemia TEAE incidence, G≥3 [2, 3]: 1 (14.3) n (%) | Constipation TEAE incidence, All grades [2, 3]: 2 (28.6) n (%) | Constipation TEAE incidence, G≥3 [2, 3]: 0 n (%) | Cough TEAE incidence, All grades [2, 3]: 1 (14.3) n (%) | Cough TEAE incidence, G≥3 [2, 3]: 0 n (%) | Decreased appetite TEAE incidence, All grades [2, 3]: 2 (28.6) n (%) | Decreased appetite TEAE incidence, G≥3 [2, 3]: 0 n (%) | Fatigue TEAE incidence, All grades [2, 3]: 4 (57.1) n (%) | Fatigue TEAE incidence, G≥3 [2, 3]: 0 n (%) | Muscular weakness TEAE incidence, All grades [2, 3]: 2 (28.6) n (%) | Muscular weakness TEAE incidence, G≥3 [2, 3]: 0 n (%) | Nausea TEAE incidence, All grades [2, 3]: 2 (28.6) n (%) | Nausea TEAE incidence, G≥3 [2, 3]: 0 n (%) | Pain in extremity TEAE incidence, All grades [2, 3]: 2 (28.6) n (%) | Pain in extremity TEAE incidence, G≥3 [2, 3]: 1 (14.3) n (%) | Peripheral edema TEAE incidence, All grades [2, 3]: 2 (28.6) n (%) | Peripheral edema TEAE incidence, G≥3 [2, 3]: 1 (14.3) n (%) | Pyrexia TEAE incidence, All grades [2, 3]: 1 (14.3) n (%) | Pyrexia TEAE incidence, G≥3 [2, 3]: 0 n (%) | Vomiting TEAE incidence, All grades [2, 3]: 1 (14.3) n (%) | Vomiting TEAE incidence, G≥3 [2, 3]: 0 n (%) | Deaths (multisystem organ failure, not considered related) ([2]; Part B, BRAF-mutated 160 mg/m^2 once-weekly group (so in the source)): One | Anemia TEAE incidence, All grades [2, 4]: 1 (33.3) n (%) | Anemia TEAE incidence, G≥3 [2, 4]: 0 n (%) | Constipation TEAE incidence, All grades [2, 4]: 0 n (%) | Constipation TEAE incidence, G≥3 [2, 4]: 0 n (%) | Cough TEAE incidence, All grades [2, 4]: 1 (33.3) n (%) | Cough TEAE incidence, G≥3 [2, 4]: 0 n (%) | Decreased appetite TEAE incidence, All grades [2, 4]: 0 n (%) | Decreased appetite TEAE incidence, G≥3 [2, 4]: 0 n (%) | Fatigue TEAE incidence, All grades [2, 4]: 0 n (%) | Fatigue TEAE incidence, G≥3 [2, 4]: 0 n (%) | Muscular weakness TEAE incidence, All grades [2, 4]: 1 (33.3) n (%) | Muscular weakness TEAE incidence, G≥3 [2, 4]: 0 n (%) | Nausea TEAE incidence, All grades [2, 4]: 1 (33.3) n (%) | Nausea TEAE incidence, G≥3 [2, 4]: 1 (33.3) n (%) | Pain in extremity TEAE incidence, All grades [2, 4]: 1 (33.3) n (%) | Pain in extremity TEAE incidence, G≥3 [2, 4]: 0 n (%) | Peripheral edema TEAE incidence, All grades [2, 4]: 1 (33.3) n (%) | Peripheral edema TEAE incidence, G≥3 [2, 4]: 0 n (%) | Pyrexia TEAE incidence, All grades [2, 4]: 0 n (%) | Pyrexia TEAE incidence, G≥3 [2, 4]: 0 n (%) | Vomiting TEAE incidence, All grades [2, 4]: 1 (33.3) n (%) | Vomiting TEAE incidence, G≥3 [2, 4]: 1 (33.3) n (%) | Anemia TEAE incidence, All grades [2, 5]: 1 (5.0) n (%) | Anemia TEAE incidence, G≥3 [2, 5]: 0 n (%) | Constipation TEAE incidence, All grades [2, 5]: 3 (15.0) n (%) | Constipation TEAE incidence, G≥3 [2, 5]: 0 n (%) | Cough TEAE incidence, All grades [2, 5]: 3 (15.0) n (%) | Cough TEAE incidence, G≥3 [2, 5]: 0 n (%) | Decreased appetite TEAE incidence, All grades [2, 5]: 3 (15.0) n (%) | Decreased appetite TEAE incidence, G≥3 [2, 5]: 0 n (%) | Fatigue TEAE incidence, All grades [2, 5]: 7 (35.0) n (%) | Fatigue TEAE incidence, G≥3 [2, 5]: 0 n (%) | Muscular weakness TEAE incidence, All grades [2, 5]: 2 (10.0) n (%) | Muscular weakness TEAE incidence, G≥3 [2, 5]: 0 n (%) | Nausea TEAE incidence, All grades [2, 5]: 7 (35.0) n (%) | Nausea TEAE incidence, G≥3 [2, 5]: 0 n (%) | Pain in extremity TEAE incidence, All grades [2, 5]: 2 (10.0) n (%) | Pain in extremity TEAE incidence, G≥3 [2, 5]: 0 n (%) | Peripheral edema TEAE incidence, All grades [2, 5]: 2 (10.0) n (%) | Peripheral edema TEAE incidence, G≥3 [2, 5]: 0 n (%) | Pyrexia TEAE incidence, All grades [2, 5]: 4 (20.0) n (%) | Pyrexia TEAE incidence, G≥3 [2, 5]: 0 n (%) | Vomiting TEAE incidence, All grades [2, 5]: 5 (25.0) n (%) | Vomiting TEAE incidence, G≥3 [2, 5]: 0 n (%) | Patients with grade 1 photophobia (possibly related) ([2]; Part B, BRAF-mutated 320 mg/m^2 once-weekly): one | Deaths (not considered related to E6201) [2, 6]: 2 patients | Patients with grade 4 pericardial effusion (unrelated) [2, 6]: 1 patient | Anemia TEAE incidence, All grades ([2]; Part B, Total (N=30)): 5 (16.7) n (%) | Anemia TEAE incidence, G≥3 ([2]; Part B, Total (N=30)): 1 (3.3) n (%) | Constipation TEAE incidence, All grades ([2]; Part B, Total (N=30)): 5 (16.7) n (%) | Constipation TEAE incidence, G≥3 ([2]; Part B, Total (N=30)): 0 n (%) | Cough TEAE incidence, All grades ([2]; Part B, Total (N=30)): 5 (16.7) n (%) | Cough TEAE incidence, G≥3 ([2]; Part B, Total (N=30)): 0 n (%) | Decreased appetite TEAE incidence, All grades ([2]; Part B, Total (N=30)): 5 (16.7) n (%) | Decreased appetite TEAE incidence, G≥3 ([2]; Part B, Total (N=30)): 0 n (%) | Fatigue TEAE incidence, All grades ([2]; Part B, Total (N=30)): 11 (36.7) n (%) | Fatigue TEAE incidence, G≥3 ([2]; Part B, Total (N=30)): 0 n (%) | Muscular weakness TEAE incidence, All grades ([2]; Part B, Total (N=30)): 5 (16.7) n (%) | Muscular weakness TEAE incidence, G≥3 ([2]; Part B, Total (N=30)): 0 n (%) | Nausea TEAE incidence, All grades ([2]; Part B, Total (N=30)): 10 (33.3) n (%) | Nausea TEAE incidence, G≥3 ([2]; Part B, Total (N=30)): 1 (3.3) n (%) | Pain in extremity TEAE incidence, All grades ([2]; Part B, Total (N=30)): 5 (16.7) n (%) | Pain in extremity TEAE incidence, G≥3 ([2]; Part B, Total (N=30)): 1 (3.3) n (%) | Peripheral edema TEAE incidence, All grades ([2]; Part B, Total (N=30)): 5 (16.7) n (%) | Peripheral edema TEAE incidence, G≥3 ([2]; Part B, Total (N=30)): 1 (3.3) n (%) | Pyrexia TEAE incidence, All grades ([2]; Part B, Total (N=30)): 5 (16.7) n (%) | Pyrexia TEAE incidence, G≥3 ([2]; Part B, Total (N=30)): 0 n (%) | Vomiting TEAE incidence, All grades ([2]; Part B, Total (N=30)): 7 (23.3) n (%) | Vomiting TEAE incidence, G≥3 ([2]; Part B, Total (N=30)): 1 (3.3) n (%) | QTcF prolongation to 450–500 ms, patients ([2]; Part B, four patients across dose groups): 13.3% | QTcF increase from baseline 30–60 ms, patients ([2]; Part B, seven patients): 23.3% | QTcF increase from baseline ≥60 ms, patients ([2]; Part B, two patients, BRAF-mutated 320 mg/m^2 once-weekly group): 6.7% | Maximum-tolerated dose (MTD), confirmed ([2]; Part B, 60-min infusion once-weekly for 3 weeks of a 28-day cycle): 320 mg/m^2 | IC50 for inhibition of spontaneous secretion of IL-6 (IL-6): 4.09 ng/mL | IC50 (IL-6; read-out: IC50 for inhibition of spontaneous secretion of IL-6): 10.5 nM | IC50 (phosphor-ERK levels): 2.08 nM
